These molecules were tested against T1, human IL-17AA (Homo sapiens, UniProt Q16552) (assay: IL-8 release assay in human epithelial keratinocytes adult (HEKa)). Details: HEKa cells, 3 ng/mL HEK-human IL-17AA + 10 ng/mL human TNFalpha; read-out: Rel EC50 IL-8 release assay.
T1 construct: host or cells: HEK (human embryonic kidney) cells
T1 sequence (Q16552 24-155): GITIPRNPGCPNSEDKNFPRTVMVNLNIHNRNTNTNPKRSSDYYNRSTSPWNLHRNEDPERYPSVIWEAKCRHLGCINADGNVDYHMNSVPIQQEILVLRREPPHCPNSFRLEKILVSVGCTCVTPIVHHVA
Format: cell-based
Summary of the method: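 IL-8 release, quantified by HTRF and normalized to controls, reports IL-17 signaling in HEKa cells treated with compound plus final 3 ng/mL IL-17AA (HEK-derived) and 10 ng/mL TNF-alpha for 68-72 h; TNF-alpha-only wells set 100% inhibition. Four-parameter logistic fits (r^2>0.9) give relative IC50 and Emax; PrestoBlue flags cytotoxicity.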

Compound	EC50
Cc1n[nH]c(C)c1-c1ccc(NC(=O)[C@@H](NC(=O)c2ccnn2C)C(C2CC2)C2CC2)cc1 [Example 117, N-[(1S)-1-(dicyclopropylmethyl)-2-[4-(3,5-dimethyl-1H-pyrazol-4-yl)anilino]-2-oxo-ethyl]-2-methyl-pyrazole-3-carboxamide]	< 100 nM
CCC(C1CCCCC1)C(NC(=O)c1ccnn1C)C(=O)Nc1ccc(-c2c(C)n[nH]c2C)cc1 (single isomer, unassigned) [Example 258]	< 100 nM
CC[C@H](C)[C@H](NC(=O)c1ccnn1C(C)C)C(=O)Nc1ccc(-c2c(C)n[nH]c2C)cc1 [Example 110]	100 to 1000 nM
Cc1n[nH]c(C)c1-c1ccc(NC(=O)C(NC(=O)c2ccnn2C)[C@@H](C)c2ccccc2)cc1 (single isomer, unassigned) [Example 234]	100 to 1000 nM
Cc1n[nH]c(C)c1-c1ccc(NC(=O)C(NC(=O)c2ccnn2C)C2CCCc3cc(F)ccc32)cc1 (single isomer, unassigned) [Example 260]	< 100 nM
Cc1n[nH]c(C)c1-c1ccc(NC(=O)[C@@H](NC(=O)c2csc3ccccc23)C2CCCCC2)cc1 [Example 74, N-[(1S)-1-cyclohexyl-2-[4-(3,5-dimethyl-1H-pyrazol-4-yl)anilino]-2-oxo-ethyl]benzothiophene-3-carboxamide]	100 to 1000 nM
CCn1nncc1C(=O)N[C@H](C(=O)Nc1ccc(-c2c(C)n[nH]c2C)cc1)C(C1CC1)C1CC1 [Example 270, N-[(1S)-1-(dicyclopropylmethyl)-2-[4-(3,5-dimethyl-1H-pyrazol-4-yl)anilino]-2-oxo-ethyl]-3-ethyl-triazole-4-carboxamide]	100 to 1000 nM
Cn1cnnc1-c1ccc(NC(=O)[C@@H](NC(=O)c2ccnn2C)C(c2ccccc2)c2ccccc2)cc1 [Example 354, N-[(1S)-1-benzhydryl-2-[4-(4-methyl-1,2,4-triazol-3-yl)anilino]-2-oxo-ethyl]-2-methyl-pyrazole-3-carboxamide]	> 1000 nM
Cc1cnn(C)c1-c1ccc(NC(=O)[C@@H](NC(=O)c2ccnn2C(C)CO)C(C2CC2)C2CC2)cc1O (stereo partly drawn) [Example 366, N-[(1S)-1-(dicyclopropylmethyl)-2-[4-(2,4-dimethylpyrazol-3-yl)-3-hydroxy-anilino]-2-oxo-ethyl]-2-(2-hydroxy-1-methyl-ethyl)pyrazole-3-carboxamide]	100 to 1000 nM
Cn1cncc1-c1ccc(NC(=O)[C@@H](NC(=O)OC(C)(C)C)C2CCCCC2)cc1 [Example 100, tert-butyl N-[(1S)-1-cyclohexyl-2-[4-(3-methylimidazol-4-yl)anilino]-2-oxo-ethyl]carbamate]	> 1000 nM
Cc1n[nH]c(C)c1-c1ccc(NC(=O)[C@@H](NC(=O)c2ccnn2C)C(C2CC2)C2CC2)cc1O [Example 414, N-[(1S)-1-(dicyclopropylmethyl)-2-[4-(3,5-dimethyl-1H-pyrazol-4-yl)-3-hydroxy-anilino]-2-oxo-ethyl]-2-methyl-pyrazole-3-carboxamide]	< 100 nM
Cc1n[nH]c(C)c1-c1ccc(NC(=O)[C@@H](NC(=O)c2ccnn2CC(C)(F)F)C(C2CC2)C2CC2)cc1 [Example 186, N-[(1S)-1-(dicyclopropylmethyl)-2-[4-(3,5-dimethyl-1H-pyrazol-4-yl)anilino]-2-oxo-ethyl]-2-(2,2-difluoropropyl)pyrazole-3-carboxamide]	< 100 nM
Cc1n[nH]c(C)c1-c1ccc(NC(=O)[C@@H](NC(=O)c2ccnn2C)C2CCCC(C)(C)C2)cc1 (single isomer, unassigned) [Example 239]	< 100 nM
CCCn1nccc1C(=O)N[C@H](C(=O)Nc1ccc(-c2c(C3CC3)n[nH]c2C)cc1)C(C1CC1)C1CC1 [Example 391, N-[(1S)-2,2-dicyclopropyl-1-[[4-(3-cyclopropyl-5-methyl-1H-pyrazol-4-yl)phenyl]carbamoyl]ethyl]-2-propyl-pyrazole-3-carboxamide]	< 100 nM

— patent publication US11377425B1, “Small molecule modulators of IL-17” (LEO Pharma A/S, priority 2018, dated 2022)
